“And” between values parts separate entries of the source, which are not always exact repeats. Equal entries are not always repeated. Where two headings read alike, the source gives them in different places.
Tests used:
[1] = test system: C. elegans; assay: C. elegans motility dose-response (DR) assay; parameters: species or system Caenorhabditis elegans
[2] = test system: C. elegans; assay: microbe, parasite or virus in culture; settings: Caenorhabditis elegans
[3] = test system: C. elegans
[4] = test system: H. contortus susceptible strain; assay: Egg hatch inhibition (EHI), ovicidal effect; parameters: species or system Haemonchus contortus; settings: susceptible strain, 100 μM, NE = Not Effective at 100 μM, control thiabendazole 0.1 µg/mL; for inhibition at 100 µM: Haemonchus contortus
[5] = test system: H. contortus susceptible strain; assay: Larval migration inhibition test (LMIT); parameters: species or system Haemonchus contortus; settings: L3, 100 μM, NE = Not Effective at 100 μM, control ivermectin 8.75 µg/mL; for inhibition at 100 µM: Haemonchus contortus, 24 h
From the text: Eggs and third instar larvae (L3) of H. contortus from a field strain and a resistant strain of T. circumcincta were used in the current trials. These parasitic forms were obtained from fresh feces of Merino and Churra sheep experimentally infected at the experimental farm of the Instituto de Ganadería de Montaña (IGM, CSIC, Gruyeros, León, Spain) and purified according to previously described methods. Briefly, eggs were taken from fresh feces, washed, centrifuged and floated with a saturated sodium chloride solution, then concentrated, counted and used in the assays. L3 were obtained by culturing feces at 25 °C for 13 d. L3 larvae were […] in 0.5% sodium hypochlorite solution for 10 min at room temperature and washed to avoid excess salt. After washing, they were concentrated and counted for use.
The viability of H. contortus larvae was assessed by the larval migration inhibition test (LMIT) according to previously described methods. Briefly, 700 µL aliquots containing 500–600 L3 were prepared for each compound. […] After a 24 h incubation at 28 °C, the compound was removed by three washes, leaving a final volume of 1400 µL. After the washes, three 400 µL aliquots were taken from each tube and transferred to a 96-well plate with a MultiScreen mesh filter. The plates were incubated for a further 24 h at 28 °C to allow the motile L3 to pass through the 20 µm mesh for counting. Then, the number of larvae present in each well was counted to determine percentage of larval migration for each compound: % Larval migration=number of larvae migrating in compound wells/number of larvae migrating in negative control×100
For the larvae, ivermectin at 8.75 µg/mL and DMSO 0.5% (v/v) were used as controls and at least 12 replicates were performed. […] EC50 were determined by plotting the percentage of viability of the L1 against the concentration of each compound, using the nonlinear fit analysis provided by the SigmaPlot® 10.1.

[6] = Caenorhabditis elegans, 24 h, read-out: EC50 (μM) at 24 h, C. elegans motility, DR assay, 24 h
[7] = 0 h, read-out: Inhibition (%) 110 μM (0 h), C. elegans L4 motility, 110 μM, 0 h, mean ± SD of four experiments
[8] = 0 h, read-out: Percentage of motility inhibition 0 h, Table S2, C. elegans SS assay, 110 μM, 0 h, averages of 4 data points
[9] = 24 h, read-out: Inhibition (%) 110 μM (24 h), C. elegans L4 motility, 110 μM, 24 h, mean ± SD of four experiments
[10] = 24 h, read-out: Percentage of motility inhibition 24 h, Table S2, C. elegans SS assay, 110 μM, 24 h, averages of 4 data points
[11] = read-out: EC50 (μM) at 24 h, C. elegans motility, DR assay
[12] = C. elegans L4 motility, 110 μM, 0 h, mean ± SD of four experiments
[13] = C. elegans L4 motility, 110 μM, 24 h, mean ± SD of four experiments
[14] = Table S2, C. elegans SS assay, 110 μM, 24 h, averages of 4 data points
[15] = Table S2, C. elegans SS assay, 110 μM, 0 h, averages of 4 data points

Row | Molecule | EC50 [1, 6] | inhibition at 110 µM [2, 7] | inhibition at 110 µM [2, 9] | inhibition at 110 µM [2, 10] | Percentage of motility inhibition 24 h [3, 14] | also measured
1 | Cc1cc(O)cc(C)c1Cl [Chloroxylenol, reference compound] | > 60 µM | 100% | 100% | 100% |  | inhibition at 110 µM [2, 8]: 100%
2 | CCc1c(Cl)c(O)c(Cl)c(O)c1C(=O)O[C@H]1[C@H](O)[C@H](OC)[C@H](OC/C2=C\C=C\C[C@H](O)/C(C)=C/[C@H](CC)[C@@H](O[C@@H]3OC(C)(C)[C@@H](OC(=O)C(C)C)[C@H](O)[C@@H]3O)/C(C)=C/C(C)=C/C[C@@H]([C@@H](C)O)OC2=O)O[C@@H]1C [Fidaxomicin, reference compound] | > 60 µM | 82 ± 7% | 89 ± 1% | 88% |  | 
3 | CN[C@H]1C[C@@H](N)[C@H](O)[C@@H](O[C@@H]2O[C@H](CO)[C@H](O)[C@@H]3OC4(O[C@H]23)O[C@H]([C@@H](N)CO)[C@H](O)[C@H](O)[C@H]4O)[C@@H]1O (stereo partly shown) [Hygromycin B, reference compound] |  |  |  |  |  | EC50 [1, 11]: > 60 µM; Inhibition (%) 110 μM (0 h) [3]: 67 ± 28%; Inhibition (%) 110 μM (24 h) [3]: 89 ± 5%
4 | CC(C)=CCc1c(-c2ccc(O)cc2O)oc2c([C@H]3C=C(C)C[C@@H](c4ccc(O)cc4O)[C@@H]3C(=O)c3ccc(O)cc3O)c(O)cc(O)c2c1=O [Kuwanon G] |  |  |  |  | 75% | EC50 [1, 11]: 34.7 ± 1.6 µM; H. contortus EHI (%) [4]: 9.4 ± 1.8%; H. contortus LMIT (%) [5]: 0.0%; Inhibition (%) 110 μM (0 h) [3, 12]: 0 ± 0%; Inhibition (%) 110 μM (24 h) [3, 13]: 74 ± 5%
5 | C[C@H]1C(=O)O[C@@H]2CCN3CC=C(COC(=O)[C@](C)(O)[C@]1(C)O)[C@H]23 [Monocrotaline] |  |  |  | 12% | 15% | Percentage of motility inhibition 0 h [3, 15]: 2%
6 | CCn1cc(C(=O)O)c(=O)c2ccc(C)nc21 [Nalidixic acid] |  |  |  | 18% | 26% | Percentage of motility inhibition 0 h [3, 15]: 22%; inhibition at 110 µM [2, 8]: 27%
7 | O=[N+]([O-])c1ccc(O)c2ncccc12 [Nitroxoline, reference compound] | > 60 µM | 52 ± 32% | 88 ± 2% |  |  | 
8 | CC1(C)CC[C@]2(C(=O)O)CC[C@]3(C)C(=CC[C@@H]4[C@@]5(C)CC[C@H](O)C(C)(C)[C@@H]5CC[C@]43C)[C@@H]2C1 [Oleanolic Acid] |  |  |  |  |  | Percentage of motility inhibition 24 h ([3]; 110 µM): 1% and 0%; inhibition at 110 µM ([2]; 0 h, read-out: Percentage of motility inhibition 0 h): 4%
9 | O=C1CCC[C@@H]2[C@H]3CCC[N+]4([O-])CCC[C@@H](CN12)[C@@H]34 (stereo partly shown) [Oxymatrine] |  |  |  | 11% |  | Percentage of motility inhibition 24 h ([3]; 24 h, 110 µM): 6%
10 | CC1(C)CCC[C@](C)([C@H]2CC[C@]3(C)[C@@H]2[C@H](O)C[C@@H]2[C@@]4(C)CC[C@H](O)C(C)(C)[C@@H]4[C@@H](O)C[C@]23C)O1 [Panaxatriol] |  |  |  | 15% | 11% | 
11 | CC(C)(O)[C@H]1O[C@H]2CC[C@@]3(C)[C@@](O)(CC[C@H]4Cc5c([nH]c6ccccc56)[C@@]43C)C2=CC1=O [Paxilline] |  |  |  |  | 0% and 8% | inhibition at 110 µM [2, 8]: 12%
12 | CC1(C)CCC[C@]2(C)[C@@H](C=O)C(C=O)=CC[C@@H]12 [Polygodial] | 33.2 ± 6.4 µM | 0% | 93 ± 4% |  |  | inhibition at 100 µM [4]: 0%; inhibition at 100 µM [5]: 0%
13 | COC(=O)[C@]1(C)CC[C@]2(C)CC[C@]3(C)C4=CC=C5C(=CC(=O)C(O)=C5C)[C@]4(C)CC[C@@]3(C)[C@@H]2C1 [Pristimerin] |  |  |  | 23% | 24% | Percentage of motility inhibition 0 h [3, 15]: 15%; inhibition at 110 µM [2, 8]: 29%
14 | Oc1ccc(/C=C/c2cc(O)cc(O)c2)cc1 [Resveratrol] | 27.7 ± 1.5 µM | 82 ± 8% | 7 ± 7% |  |  | inhibition at 100 µM [4]: 0%; inhibition at 100 µM [5]: 0%
15 | NC(=O)c1ncn([C@@H]2O[C@H](CO)[C@@H](O)[C@H]2O)n1 [Ribavirin, reference compound] | > 60 µM | 91 ± 5% | 76 ± 11% |  |  | 
16 | N=C(N/N=C/c1ccc(Cl)cc1)N/N=C/c1ccc(Cl)cc1 [Robenidine, reference compound] | 32.3 ± 2.8 µM | 93 ± 5% | 81 ± 20% | 80% |  | inhibition at 100 µM [4]: 59.7 ± 0.7%; inhibition at 100 µM [5]: 3.1 ± 6.9%
17 | CC(C)=CCC/C(C)=C/CC/C(C)=C/CC/C=C(\C)CC/C=C(\C)CCC=C(C)C [Squalene] |  |  |  | 11% |  | Percentage of motility inhibition 24 h ([3]; 24 h, 110 µM): 19%; inhibition at 110 µM [2, 8]: 4%
18 | Nc1ccc(S(=O)(=O)Nc2cnc3ccccc3n2)cc1 [Sulfaquinoxaline, reference compound] | > 60 µM | 87 ± 1% | 67 ± 6% |  |  | 
19 | CNCC(O)c1ccc(O)cc1 (stereo not shown) [Synephrine] |  |  |  |  | 24% | inhibition at 110 µM [2, 8]: 16%
20 | COc1ccc2cc1Oc1ccc(cc1)C[C@H]1c3cc(c(OC)cc3CCN1C)Oc1c(OC)c(OC)cc3c1[C@H](C2)N(C)CC3 [Tetrandrine] |  |  |  | 16% |  | Percentage of motility inhibition 24 h ([3]; 24 h, 110 µM): 12%
21 | CC(C)[C@]12O[C@H]1[C@@H]1O[C@]13[C@]1(O[C@H]1C[C@H]1C4=C(CC[C@@]13C)C(=O)OC4)[C@@H]2O [Triptolide] |  |  |  | 71% |  | EC50 ([1]; Caenorhabditis elegans, read-out: EC50 (μM) at 24 h, C. elegans motility, DR assay): > 60 µM; inhibition at 110 µM ([2]; 0 h, read-out: Inhibition (%) 110 μM (0 h)): 15%; inhibition at 110 µM ([2]; 24 h, read-out: Inhibition (%) 110 μM (24 h)): 72 ± 1%
22 | Nc1ncnc2c1ncn2[C@@H]1O[C@H](CO)[C@@H](O)[C@@H]1O [Vidarabine] |  |  |  | 0% |  | Percentage of motility inhibition 0 h [3, 15]: 4%
23 | COC(=O)[C@@H]1[C@H]2C[C@H]3c4[nH]c5ccccc5c4CCN3C[C@@H]2CC[C@@H]1O [Yohimbine] |  |  |  |  |  | Percentage of motility inhibition 0 h ([3]; 0 h, 110 μM): 8%; inhibition at 110 µM [2, 8]: 7%
24 | Spiramycin [reference compound] |  |  |  |  | 80% | EC50 [1, 11]: > 60 µM; Inhibition (%) 110 μM (0 h) [3, 12]: 43 ± 42%; Inhibition (%) 110 μM (24 h) [3, 13]: 81 ± 9%; Percentage of motility inhibition 0 h [3, 15]: 42%

— publication PMC11855827, “High-Throughput Screening of Five Compound Libraries for Anthelmintic Activity and Toxicity Leads to the Discovery of Two Flavonoid Compounds” (International Journal of Molecular Sciences, 2025)
